# Patent US10807985B2 (Blueprint Medicines Corporation, priority 2013, dated 2020)
# Columns and labels:
# D816V KIT = D816V KIT (Homo sapiens (Human), UniProt P10721, D816V); assay: KIT D816V assay at Km (Caliper electrophoretic mobility shift); settings: biochemical, 15 uM ATP (Km), 90 minutes at 25 C; read-out: INH KIT D816V
# PDGFRA D842V = PDGFRA D842V (Homo sapiens (Human), UniProt P16234, D842V); assay: PDGFRA D842V assay at Km (Caliper electrophoretic mobility shift); settings: biochemical, 15 uM ATP (Km), 90 minutes at 25 C; read-out: INH PDFGRA D842V
# PDGFRA D842V, sequence (P16234 24-1089 D842V): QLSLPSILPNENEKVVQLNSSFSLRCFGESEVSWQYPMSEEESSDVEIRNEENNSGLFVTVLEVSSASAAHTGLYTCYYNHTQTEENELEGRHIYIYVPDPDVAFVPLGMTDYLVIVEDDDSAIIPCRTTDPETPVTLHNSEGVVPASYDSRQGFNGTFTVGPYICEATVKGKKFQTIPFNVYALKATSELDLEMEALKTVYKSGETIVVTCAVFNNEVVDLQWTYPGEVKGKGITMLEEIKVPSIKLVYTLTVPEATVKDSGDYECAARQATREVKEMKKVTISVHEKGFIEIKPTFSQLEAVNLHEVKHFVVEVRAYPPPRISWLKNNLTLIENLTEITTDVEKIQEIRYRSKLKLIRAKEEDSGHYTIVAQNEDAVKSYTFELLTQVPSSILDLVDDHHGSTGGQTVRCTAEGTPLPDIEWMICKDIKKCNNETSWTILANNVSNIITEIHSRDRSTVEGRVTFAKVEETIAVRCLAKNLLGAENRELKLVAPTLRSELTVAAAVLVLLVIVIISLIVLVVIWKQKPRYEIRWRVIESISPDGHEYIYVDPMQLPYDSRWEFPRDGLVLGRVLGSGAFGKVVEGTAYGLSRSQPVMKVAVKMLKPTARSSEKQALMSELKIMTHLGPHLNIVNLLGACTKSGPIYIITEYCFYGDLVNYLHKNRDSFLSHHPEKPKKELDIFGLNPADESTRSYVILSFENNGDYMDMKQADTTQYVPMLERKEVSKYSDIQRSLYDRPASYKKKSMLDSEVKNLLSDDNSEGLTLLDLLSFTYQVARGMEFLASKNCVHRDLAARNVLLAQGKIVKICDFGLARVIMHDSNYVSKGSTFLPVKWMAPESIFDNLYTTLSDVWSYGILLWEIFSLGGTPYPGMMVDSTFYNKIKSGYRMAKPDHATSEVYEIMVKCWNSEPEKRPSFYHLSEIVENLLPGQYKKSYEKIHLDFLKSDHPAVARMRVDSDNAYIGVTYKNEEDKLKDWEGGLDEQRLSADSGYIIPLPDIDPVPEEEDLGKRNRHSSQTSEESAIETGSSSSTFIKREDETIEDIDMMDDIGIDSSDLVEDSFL
# [1] = biological target: KIT D816V kinase activity (KIT autophosphorylation at tyrosine 719) in HMC1.2 cells (Homo sapiens (Human), UniProt P10721, D816V/V560G); assay: HMC1.2 autophosphorylation assay (phospho-Y719 c-KIT AlphaLISA); assay type: cell-based; settings: HMC1.2 mast cell leukemia cell line (KIT V560G, D816V), 90 minutes compound; read-out: INH-KIT-PHOS-HMC1.2
# KIT D816V kinase activity (KIT autophosphorylation at tyrosine 719) in HMC1.2 cells, sequence (P10721 26-976 V560G/D816V): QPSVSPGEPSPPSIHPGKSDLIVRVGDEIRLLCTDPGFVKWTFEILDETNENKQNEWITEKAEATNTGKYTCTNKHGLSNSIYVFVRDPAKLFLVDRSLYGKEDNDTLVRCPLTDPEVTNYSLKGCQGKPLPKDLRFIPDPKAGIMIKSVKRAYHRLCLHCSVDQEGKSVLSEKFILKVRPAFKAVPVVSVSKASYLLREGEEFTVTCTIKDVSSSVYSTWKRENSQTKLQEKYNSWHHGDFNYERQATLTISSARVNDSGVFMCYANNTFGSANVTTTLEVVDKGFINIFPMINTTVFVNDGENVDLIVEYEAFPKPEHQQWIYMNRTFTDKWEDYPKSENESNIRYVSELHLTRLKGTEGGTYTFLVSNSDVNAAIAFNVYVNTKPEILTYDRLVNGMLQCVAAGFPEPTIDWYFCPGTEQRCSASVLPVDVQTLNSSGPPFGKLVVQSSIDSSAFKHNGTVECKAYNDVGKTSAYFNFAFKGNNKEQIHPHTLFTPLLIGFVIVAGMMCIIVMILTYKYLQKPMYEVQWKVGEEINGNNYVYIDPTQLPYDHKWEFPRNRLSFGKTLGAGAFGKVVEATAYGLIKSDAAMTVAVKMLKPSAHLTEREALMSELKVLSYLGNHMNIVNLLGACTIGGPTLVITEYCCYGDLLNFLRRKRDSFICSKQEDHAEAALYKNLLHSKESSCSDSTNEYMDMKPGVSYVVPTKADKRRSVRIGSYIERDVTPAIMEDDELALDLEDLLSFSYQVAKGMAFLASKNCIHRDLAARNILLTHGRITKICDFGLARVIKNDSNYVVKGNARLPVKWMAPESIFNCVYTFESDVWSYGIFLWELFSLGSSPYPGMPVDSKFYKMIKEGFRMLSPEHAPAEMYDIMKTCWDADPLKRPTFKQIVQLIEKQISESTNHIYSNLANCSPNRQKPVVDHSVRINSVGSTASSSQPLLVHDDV
# D816V KIT, sequence (P10721 26-976 D816V): as the sequence (P10721 26-976 V560G/D816V) above, with G535V counted along it
IC50 (D816V KIT) [nM],IC50 (PDGFRA D842V) [nM],IC50 [1] [nM],SMILES
< 1,< 1,< 50,O[C@@](c1ccc(F)cc1)(c1cnc(N2CCN(c3ncnn4cc(-c5cn[nH]c5)cc34)CC2)nc1)C(F)F [Compound 100]
1.01 to 10,1.01 to 10,100 to 1000,C[C@](O)(c1ccc(F)cc1)c1cnc(N2CCN(c3ncnn4cc(-c5ccc(F)cc5)cc34)CC2)nc1 [Compound 65]
< 1,< 1,100 to 1000,CN(C)C(=O)c1ccc(-c2cc3c(N4CCN(c5ncc(Cc6ccccc6)cn5)CC4)ncnn3c2)cc1 [Compound 98]
1.01 to 10,1.01 to 10,< 50,Cn1cc(-c2cc3c(N4CCN(c5ncc([C@](C)(O)c6ccc(Cl)cc6)cn5)CC4)ncnn3c2)cn1 [Compound 84]
1.01 to 10,< 1,< 50,Cn1cc(-c2cc3c(N4CCN(c5ncc([C@](C)(O)c6c(F)cc(F)cc6F)cn5)CC4)ncnn3c2)cn1 [Compound 115]
< 1,< 1,< 50,Cn1cc(-c2cc3c(N4CCN(c5ncc([C@@](N)(c6ccc(F)cc6)C(F)F)cn5)CC4)ncnn3c2)cn1 [Compound 111]
1.01 to 10,1.01 to 10,50 to 100,C[C@](O)(c1ccc(F)cc1)c1cnc(N2CCN(c3ncnn4cc(-c5ccccc5)cc34)CC2)nc1 [Compound 38]
1.01 to 10,< 1,< 50,C[C@@H]1CN(c2ncnn3cc(-c4cnn(C)c4)cc23)CCN1c1ncc([C@@](C)(O)c2ccc(F)cc2)cn1 [Compound 77]
< 1,1.01 to 10,< 50,Cn1cc(-c2cc3c(N4CCN(c5ncc([C@@](O)(c6ccc(F)cc6)C(F)F)cn5)CC4)ncnn3c2)cn1 [Compound 117]
1.01 to 10,1.01 to 10,50 to 100,COc1ccc(-c2cc3c(N4CCN(c5ncc([C@@](C)(O)c6ccc(F)cc6)cn5)CC4)ncnn3c2)cc1 [Compound 102]
< 1,< 1,< 50,CCn1cc(-c2cc3c(N4CCN(c5ncc([C@@](C)(N)c6ccccc6)cn5)CC4)ncnn3c2)cn1 [Compound 35]
1.01 to 10,1.01 to 10,50 to 100,C[C@@H]1CN(c2ncnn3cc(-c4cnn(C)c4)cc23)CCN1c1ncc([C@](C)(O)c2ccc(F)cc2)cn1 [Compound 76]
< 1,< 1,< 50,Cn1cc(-c2cc3c(N4CCN(c5ncc([C@](C)(N)c6ccc(F)cc6F)cn5)CC4)ncnn3c2)cn1 [Compound 86]
< 1,< 1,< 50,C[C@](O)(c1ccc(F)cc1)c1cnc(N2CCN(c3ncnn4cc(-c5cn[nH]c5)cc34)CC2)nc1 [Compound 30]
< 1,< 1,50 to 100,C[C@](N)(c1ccccc1)c1cnc(N2CCN(c3ncnn4cc(-c5ccc(F)cc5)cc34)CC2)nc1 [Compound 34]
1.01 to 10,1.01 to 10,< 50,Cn1cc(-c2cc3c(N4CCN(c5ncc(Sc6ccccc6F)cn5)[C@H](CO)C4)ncnn3c2)cn1 [Compound 97]
1.01 to 10,< 1,< 50,Cn1cc(-c2cc3c(N4CCN(c5ncc(C(C)(C)c6ccc(F)cc6)cn5)CC4)ncnn3c2)cn1 [Compound 39]
< 1,1.01 to 10,< 50,C[C@](O)(c1cnc(N2CCN(c3ncnn4cc(-c5cn[nH]c5)cc34)CC2)nc1)c1ccc(F)cc1F [Compound 57]
1.01 to 10,< 1,< 50,Cn1cc(-c2cc3c(N4CCN(c5ncc([C@](C)(CO)c6ccc(F)cc6)cn5)CC4)ncnn3c2)cn1 [Compound 79]
1.01 to 10,1.01 to 10,50 to 100,C[C@@](O)(c1ccc(F)cc1)c1cnc(N2CCN(c3ncnn4cc(-c5cn[nH]c5)cc34)CC2)nc1 [Compound 29]
